Results reported in the NIST ThermoML archive (doi:10.1016/j.jct.2007.09.008).
Numbers after ± are expanded uncertainties.

Settings: Liquid, Closed cell (Static) method

| vapor or sublimation pressure (293.2 K) [kPa] | vapor or sublimation pressure (313.1 K) [kPa] | vapor or sublimation pressure (323.2 K) [kPa] | vapor or sublimation pressure (333.1 K) [kPa] | vapor or sublimation pressure (283.2 K) [kPa] | vapor or sublimation pressure (292.9 K) [kPa] | vapor or sublimation pressure (302.9 K) [kPa] | vapor or sublimation pressure (323.1 K) [kPa] | vapor or sublimation pressure (333.2 K) [kPa] | vapor or sublimation pressure (343.2 K) [kPa] | Structure (SMILES) | vapor or sublimation pressure (283.1 K) [kPa] | vapor or sublimation pressure (293.1 K) [kPa] | vapor or sublimation pressure (303.1 K) [kPa] | vapor or sublimation pressure (312.9 K) [kPa] | vapor or sublimation pressure (323.3 K) [kPa] | vapor or sublimation pressure (333.3 K) [kPa] | vapor or sublimation pressure (343.1 K) [kPa] |
| --- | --- | --- | --- | --- | --- | --- | --- | --- | --- | --- | --- | --- | --- | --- | --- | --- | --- |
| – | – | – | – | – | – | – | – | – | – | CCC1CCC(=O)O1 (stereo unspecified) [2(3H)-furanone, 5-ethyldihydro-] | 0.075 ± 0.008 | 0.128 ± 0.008 | 0.221 ± 0.008 | 0.356 ± 0.016 | 0.564 ± 0.019 | 0.862 ± 0.027 | 1.367 ± 0.1 |
| 0.011 ± 0.006 | 0.054 ± 0.004 | 0.103 ± 0.006 | 0.191 ± 0.01 | – | – | – | – | – | – | CC1CCCC(=O)O1 (stereo unspecified) [2H-pyran-2-one, tetrahydro-6-methyl-] | 0.005 ± 0.002 | – | 0.025 ± 0.016 | – | – | – | 0.354 ± 0.02 |
| – | 0.213 ± 0.008 | – | – | 0.045 ± 0.002 | 0.079 ± 0.003 | 0.131 ± 0.006 | 0.339 ± 0.012 | 0.518 ± 0.021 | 0.768 ± 0.031 | O=C1CCCCCO1 [6-hexanolactone] | – | – | – | – | – | – | – |
